In the test the test system is CTL clone 5. The experiment in a line: GM-CSF release by CTL clone 5 on peptide-pulsed EBV B cells. In kind it is cell-based, human. The note with it: for CTL clone 5 GM-CSF release: 1510EBV cells incubated with peptide at 0.1 μg/ml for 90 min; for GM-CSF release by CTL clone 5, EXPT. 2 (586EBV): 586EBV cells; for GM-CSF release by CTL clone 5, EXPT. 2 (586EBV) / GM-CSF release by CTL clone 5, EXPT. 1 (1510EBV): peptide 0.1 μg/ml for 90 min, 5 × 10^4 CTL clone 5; for GM-CSF release by CTL clone 5, EXPT. 1 (1510EBV): 1510EBV cells. The method, then: DNA transfection and GM-CSF assay were done as previously described (Wang, R. F., P. F. Robbins, Y. Kawakami, X. Q. Kang, and S. A. Rosenberg, 1995, J. Exp. Med. 181:799–804). Briefly, […] of DNA carrying a different fragment and 50 ng of the HLA-A31 DNA were mixed with 2 μl of lipofectamine in 100 μl of serum-free DMEM for 15–45 min. The DNA/lipofectamine mixture was then added to the COS-7 (5×10^4) cells and incubated overnight. The following day, cells were washed twice with DMEM medium. TIL586, CTL clone 5 or CTL clone 10 were added at a concentration of 5×10^4 cells/well in AIM-V medium containing 120 IU/ml of IL-2. After 18–24 h incubation, 100 μl of supernatant was collected and GM-CSF was measured in a standard ELISA assay (R+D Systems, Minneapolis, Minn.). For peptides, 586EBV, 1510EBV and T2 cells were incubated with peptides at 37° C. for 90 min, and then washed three times with AIM-V medium containing 120 IU/ml of IL-2. T cells were added and incubated for additional 18–24 h, 100 μl of supernatant was collected for GM-CSF assay. In some experiments, IFN-γ release assays were done using a standard ELISA kit (Endogen, Woburn, Mass.).
These peptides were pulsed onto HLA-A31-positive 1510EBV B cells and tested for their ability to stimulate cytokine release by CTL clone 5. […] CTL clone 10 recognized the same peptide as CTL clone 5 (data not shown). […] The reactivity of CTL clone 5 was undetectable when either the ESO9-54 or the ESO10-127 peptides were used at concentrations below 100 nM to sensitize EBV cells.

The values that follow come from US7084239B1, “Cancer peptides of NY-ESO-1/CAG-3” (The United States of America as represented by the …, priority 1997, dated 2006).

With “LAQPPSGQR (listed as Homo sapiens) [ESO9-89]”, the “CTL clone 5 GM-CSF release” value is given as <50 (SEQ. ID NO: 11) pg/ml. On to ATGPGGGAPR (listed as Homo sapiens), for which the “GM-CSF release by CTL clone 5, EXPT. 2 (586EBV)” value (shortened to “GM-CSF release … (586EBV)”) is listed as 1158 (SEQ. ID NO: 38) and the “GM-CSF release by CTL clone 5, EXPT. 1 (1510EBV)” value (from here on “GM-CSF release … (1510EBV)”) was 1630.

Consider “RCGARGPESR (listed as Homo sapiens) [ESO10-77]”, for which the “CTL clone 5 GM-CSF release” value is on record as <50 (SEQ. ID NO: 20) pg/ml.

Turning to RASGPGGGAPR (listed as Homo sapiens), the “GM-CSF release … (586EBV)” value is 708 (SEQ. ID NO: 30) and the “GM-CSF release … (1510EBV)” value is on record as 851. Regarding “TPMEAELAR (listed as Homo sapiens) [ESO9-98]”, the “CTL clone 5 GM-CSF release” value was <50 (SEQ. ID NO: 7) pg/ml. On to “GPRGAGAAR (listed as Homo sapiens) [ESO9-45]”, for which the “CTL clone 5 GM-CSF release” value is <50 (SEQ. ID NO: 10) pg/ml. In the case of “LAQPPSGQRR (listed as Homo sapiens) [ESO10-171]”, the “CTL clone 5 GM-CSF release” value was <50 (SEQ. ID NO: 22) pg/ml.

On to “AGAARASGPGGGAPR (listed as Homo sapiens)”, for which the “GM-CSF release … (586EBV)” value is recorded as 532 (SEQ. ID NO: 26) and the “GM-CSF release … (1510EBV)” value came to 728. The corresponding values for ALGPGGGAPR (listed as Homo sapiens) are 378 (SEQ. ID NO: 36) and 200. For the sequence “FLAQPPSGQR (listed as Homo sapiens) [ESO10-170]”, the “CTL clone 5 GM-CSF release” value is given as <50 (SEQ. ID NO: 18) pg/ml. Take AARASGPGGGAPR (listed as Homo sapiens): the “GM-CSF release … (586EBV)” value was 738 (SEQ. ID NO: 28) and the “GM-CSF release … (1510EBV)” value came to 844. On to SGPGGGAPRG (listed as Homo sapiens), for which the “GM-CSF release … (586EBV)” value is given as <50 (SEQ. ID NO: 33) and the “GM-CSF release … (1510EBV)” value is given as less than 50. As to “IRLTAADHR (listed as Homo sapiens) [ESO9-35]”, the “CTL clone 5 GM-CSF release” value is <50 (SEQ. ID NO: 13) pg/ml. AAGPGGGAPR (listed as Homo sapiens): the “GM-CSF release … (586EBV)” value was 676 (SEQ. ID NO: 34) and the “GM-CSF release … (1510EBV)” value is on record as 688. Turning to “LNGCCRCGAR (listed as Homo sapiens) [ESO10-72]”, the “CTL clone 5 GM-CSF release” value is given as <50 (SEQ. ID NO: 24) pg/ml.

AIGPGGGAPR (listed as Homo sapiens): the “GM-CSF release … (586EBV)” value is reported as 550 (SEQ. ID NO: 35) and the “GM-CSF release … (1510EBV)” value is 428. On the same counts, the results for ASGPGGGAPH (listed as Homo sapiens) are <50 (SEQ. ID NO: 40) and less than 50. As to “GATGGRGPR (listed as Homo sapiens) [ESO9-38]”, the “CTL clone 5 GM-CSF release” value is given as <50 (SEQ. ID NO: 9) pg/ml. Turning to TSGPGGGAPR (listed as Homo sapiens), the “GM-CSF release … (586EBV)” value is recorded as 346 (SEQ. ID NO: 41) and the “GM-CSF release … (1510EBV)” value came out at 320. The corresponding values for GPGGGAPR (listed as Homo sapiens) are <50 (SEQ. ID NO: 31) and less than 50. “AQPPSGQRR (listed as Homo sapiens) [ESO9-90]”: the “CTL clone 5 GM-CSF release” value is on record as <50 (SEQ. ID NO: 6) pg/ml. Consider ASGPGGGAPRG (listed as Homo sapiens), for which the “GM-CSF release … (586EBV)” value is given as <50 (SEQ. ID NO: 32) and the “GM-CSF release … (1510EBV)” value was less than 50. For the sequence GAARASGPGGGAPR (listed as Homo sapiens), the “GM-CSF release … (586EBV)” value was 678 (SEQ. ID NO: 27) and the “GM-CSF release … (1510EBV)” value amounted to 659.
